# According to paper PMC7887755, “Structure–Activity Relationships of Pyrazolo[1,5-a]pyrimidin-7(4H)-ones as Antitubercular Agents” (ACS Infectious Diseases, 2021):
# Values joined by “and” are separate entries in the source; they are usually repeats but may differ in a detail not shown here. Equal values may be shown once.
# Legend:
# [1] = system: P19^R strain rv1751 P152S; assay type: cell-based, Mycobacterium tuberculosis
# [2] = system: P19^R strain rv1751 L250Q; assay type: cell-based, Mycobacterium tuberculosis
# [3] = system: P19^R strain rv1751 A434T; assay type: cell-based, Mycobacterium tuberculosis
# P19^R strain rv1751 V96L = assay type: cell-based, Mycobacterium tuberculosis
# [4] = system: P19^R strain rv1751 H97Y/N; assay type: cell-based, Mycobacterium tuberculosis
# [5] = system: Mtb strain H37Rv cydC::aph; assay type: cell-based, Mycobacterium tuberculosis
# [6] = system: P19^R strain rv1751 L399W; assay type: cell-based, Mycobacterium tuberculosis
smiles,measurement,setting,value
"Cc1nn2c(=O)cc(-c3ccccc3)[nH]c2c1-c1ccccc1 [Compound 1, 2-Methyl-3,5-diphenylpyrazolo[1,5-a]pyrimidin-7(4H)-one]",MIC P152S,[1],2.3 µM
same,fold change P152S,[1],2
same,MIC L250Q,[2],3.13 µM
same,fold change L250Q,[2],2.6
same,MIC A434T,[3],1.56 µM
same,fold change A434T,[3],1.3
same,MIC V96L,P19^R strain rv1751 V96L,2.3 µM
same,fold change V96L,P19^R strain rv1751 V96L,2
same,MIC H97Y/N,[4],1.56 µM
same,fold change H97Y/N,[4],1.3
same,MIC CydKO,[5],12.5 µM
same,MIC L399W,[6],12.5 µM
same,fold change L399W,[6],10
"O=c1cc(CC2CCCCC2)[nH]c2c(-c3ccc(Cl)cc3)cnn12 [Compound 2, 3-(4-Chlorophenyl)-5-(cyclohexylmethyl)pyrazolo[1,5-a]pyrimidin-7(4H)-one, reference compound]",MIC P152S,[1],1.2 µM
same,fold change P152S,[1],3
same,MIC L250Q,[2],1.2 µM
same,fold change L250Q,[2],3
same,MIC A434T,[3],1.2 µM
same,fold change A434T,[3],3
same,MIC V96L,P19^R strain rv1751 V96L,1.2 µM
same,fold change V96L,P19^R strain rv1751 V96L,3
same,MIC H97Y/N,[4],0.39 µM
same,fold change H97Y/N,[4],1
same,MIC CydKO,[5],25.0 µM
same,MIC L399W,[6],0.39 µM
same,fold change L399W,[6],1
"COc1ccc(-c2cc(=O)n3nc(C)c(-c4ccc(F)cc4)c3[nH]2)cc1 [Compound 4, 3-(4-Fluorophenyl)-5-(4-methoxyphenyl)-2-methylpyrazolo[1,5-a]pyrimidin-7(4H)-one, reference compound]",MIC P152S,[1],2.3 µM
same,fold change P152S,[1],1.5
same,MIC L250Q,[2],4.7 µM
same,fold change L250Q,[2],3
same,MIC A434T,[3],2.3 µM
same,fold change A434T,[3],1.5
same,MIC V96L,P19^R strain rv1751 V96L,2.3 µM
same,fold change V96L,P19^R strain rv1751 V96L,1.5
same,MIC H97Y/N,[4],1.56 µM
same,fold change H97Y/N,[4],1
same,MIC CydKO,[5],9.40 µM
same,MIC L399W,[6],3.13 µM
same,fold change L399W,[6],2
"Cc1nn2c(=O)cc(-c3ccc(F)c(F)c3)[nH]c2c1-c1ccccc1 [Compound P19, 5-(3,4-Difluorophenyl)-2-methyl-3-phenylpyrazolo[1,5-a]pyrimidin-7(4H)-one]",MIC P152S,[1],1.56 µM
same,fold change P152S,[1],2
same,MIC L250Q,[2],2.3 µM
same,fold change L250Q,[2],3
same,MIC A434T,[3],1.56 µM
same,fold change A434T,[3],2
same,MIC V96L,P19^R strain rv1751 V96L,2.3 µM
same,fold change V96L,P19^R strain rv1751 V96L,3
same,frequency of resistant clones,Mtb H37Rv,3 × 10^–8 and 4 × 10^–9
same,MIC H97Y/N,[4],1.56 µM
same,fold change H97Y/N,[4],2
same,MIC CydKO,[5],3.13 µM
same,MIC L399W,[6],12.5 µM
same,fold change L399W,[6],16
"Cc1nn2c(=O)cc(-c3ccc(Cl)c(Cl)c3)[nH]c2c1-c1ccc(F)cc1 [Compound P24, 5-(3,4-Dichlorophenyl)-3-(4-fluorophenyl)-2-methylpyrazolo[1,5-a]pyrimidin-7(4H)-one]",MIC P152S,[1],3.90 µM
same,fold change P152S,[1],2.5
same,MIC L250Q,[2],6.26 µM
same,fold change L250Q,[2],4
same,MIC A434T,[3],3.12 µM
same,fold change A434T,[3],2
same,MIC V96L,P19^R strain rv1751 V96L,7.82 µM
same,fold change V96L,P19^R strain rv1751 V96L,5
same,MIC H97Y/N,[4],6.25 µM
same,fold change H97Y/N,[4],4
same,MIC L399W,[6],18.8 µM
same,fold change L399W,[6],12
"NNC(=O)c1ccncc1 [INH, isoniazid, reference compound]",MIC P152S,[1],0.04 µM
same,MIC L250Q,[2],0.04 µM
same,MIC A434T,[3],0.04 µM
same,MIC V96L,P19^R strain rv1751 V96L,0.04 µM
same,MIC H97Y/N,[4],0.04 µM
same,MIC CydKO,[5],0.30 µM
same,MIC L399W,[6],0.04 µM
